Assay results as given in paper PMC7272432, “Amyloid Aggregation of Insulin: An Interaction Study of Green Tea Constituents” (Scientific Reports, 2020).

Molecular target: T1, human insulin (Homo sapiens, UniProt P01308)
T1 construct: gene INS; Human insulin (I2643, recombinant, expressed in yeast); 51 amino acids divided into two chains
Assay: ThT fluorescence assay of insulin amyloid aggregation ([…] insulin, pH […] °C), supported by kinetics, AFM and ATR-FTIR
Format: biochemical

T1 sequence (P01308 25-54): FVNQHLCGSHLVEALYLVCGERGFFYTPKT
T1 sequence (P01308 90-110): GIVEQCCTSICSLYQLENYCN

SMILES: O=C(O[C@@H]1Cc2c(O)cc(O)cc2O[C@@H]1c1cc(O)c(O)c(O)c1)c1cc(O)c(O)c(O)c1 [EGCG, (-)-epigallocatechin gallate]
- IC50: 476 ± 32.5 µM
